Experimental data as given in patent publication US6924278B2, “Aroyl-piperazine derivatives, their preparation and their use as tachykinin antagonists” (Fujisawa Pharmaceutical Co., Ltd., priority 1997, dated 2005).
Counter-ions that a name gives are not always drawn.

Legend:
[1] = molecular target: T1, h-NK1 receptors (Homo sapiens, UniProt P25103); assay: Evaluation of NK1 antagonist transport efficiency to the central nervous system using a h-NK1 receptor binding assay (brain extract after i.v. dosing of rats); settings: 5 min; compound extracted from brain of male SD rats 5 min after i.v. injection at the dose of 1 mg/kg; CHO cell membranes expressing h-NK1; read-out: inhibition rate of 125I-BH-Substance P binding to h-NK1 receptors
T1 construct: expressed in transfected cells; host or cells: CHO cells (permanent expression), crude cell membranes
Experimental: A. Evaluation of NK1 Antagonist Transport Efficiency to the Cental Nervous System using a h-NK1 Receptor Binding Assay
(1) Administration of Test Compound and Extraction of the Compound from Brain
Male SD rats were given an i.v. injection of a solution containing a test compound (1 mg/kg). 5 Min later the animals were anesthetized by ether, bled and perfused through the aorta ascendens with 20 ml of saline. The brain was rapidly removed, weighed and homogenized in 4 vol. ice-cold distilled water by using Polytoron (KINEMATICA). To extract the test compound, 500 μl of the homogenate, 100 μl of methanol, 500 μl of 0.1 N NaOH and 4 ml of ethyl acetate were mixed by shaking for 10 min at room temperature. The organic phase (2.5 ml) was recovered by centrifugation at 3,000 rpm for 10 min, dried and dissolved in dimethyl sulfoxide.
(2) h-NK1 Receptor Binding Assay
(a) Crude CHO Cell Membrane Preparation
CHO cells permanently expressing h-NK1 receptors were harvested and homogenized with a Dounce homogenizer at 4° C. in a buffer (0.25 M sucrose, 25 mM Tris-HCl (pH 7.4), 10 mM MgCl2, 1 mM EDTA, 5 μg/ml p-APMSF). The homogenate was centrifuged (500×g, 10 min), and the pellet was resuspended in the same buffer, homogenized, and centrifuged. The two supernatants were combined and centrifuged (100,000×g, 1 hour). The crude cell membranes thus isolated were resuspended in a buffer (25 mM Tris-HCl (pH 7.4), 10 mM MgCl2, 1 mM. EDTA, 5 μg/ml p-APMSF) and stored at −80° C. until use.
(b) ^125I-BH-Substance P Binding to the Prepared Membrane
Cell membranes (6 μg/ml) were incubated with ^125I-BH-Substance P (0.1 nM) with or without the extracted compounds in 0.25 ml of a medium (50 mM Tris-HCl (pH 7.4), 5 mM MnCl2, 20 μg/ml chymostatin, 40 μg/ml bacitracin, 4 μg/ml leupeptin, 5 μg/ml p-APMSF, 200 μg/ml BSA) at 22° C. for 90 min. At the end of the incubation period, the contents were quickly filtered through a Blue Mat 11740 filter (pretreated with 0.1% polyethylenimine for 3 hours prior to use) by using SKATRON Cell Harvester. The filter was then washed with a washing buffer (50 mM Tris-HCl (pH 7.4), 5 mM MnCl2). The radioactivity was counted by using an auto gamma counter (Packard RIASTAR 5420A). All data presented are specific binding defined as that displaceable by 3 μM unlabeled Substance P.

T1 sequence (P25103 whole entry): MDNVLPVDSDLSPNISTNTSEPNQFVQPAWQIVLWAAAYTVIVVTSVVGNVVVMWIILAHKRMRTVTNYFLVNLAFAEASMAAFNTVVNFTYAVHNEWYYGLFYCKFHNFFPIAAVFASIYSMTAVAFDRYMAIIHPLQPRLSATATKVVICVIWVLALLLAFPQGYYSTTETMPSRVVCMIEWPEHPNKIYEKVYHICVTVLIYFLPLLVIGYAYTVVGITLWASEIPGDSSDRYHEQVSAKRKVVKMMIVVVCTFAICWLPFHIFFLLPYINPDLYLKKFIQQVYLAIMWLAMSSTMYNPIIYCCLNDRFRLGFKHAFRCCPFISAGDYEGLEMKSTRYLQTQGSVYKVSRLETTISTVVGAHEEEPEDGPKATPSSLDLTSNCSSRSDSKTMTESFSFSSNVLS

SMILES | inhibition at 1 mg/kg [1] [%] | melting point [°C]
Cc1ccc(C[C@@H]2CN(C/C=C/c3cccnc3)CCN2C(=O)c2cc(C(F)(F)F)cc(C(F)(F)F)c2)cc1C.Cl.Cl [6-(1), (2R)-1-[3,5-Bis(trifluoromethyl)benzoyl]-2-(3,4-dimethylbenzyl)-4-[(E)-3-(3-pyridyl)-2-propenyl]piperazine dihydrochloride] | > 80 | 170 to 174
Cc1ccc(C[C@@H]2CN(C/C=C/CN3CCOCC3)CCN2C(=O)c2cc(Cl)cc(Cl)c2)cc1C.Cl.Cl [16-(2), (2R)-1-(3,5-Dichlorobenzoyl)-2-(3,4-dimethylbenzyl)-4-[(E)-4-morpholino-2-butenyl]piperazine dihydrochloride] | > 80 | > 230
Cl.Cl.O=C(c1cc(C(F)(F)F)cc(C(F)(F)F)c1)N1CCN(C/C=C/c2cccnc2)C[C@H]1Cc1c[nH]c2ccccc12 [56-(2), (2R)-1-[3,5-Bis(trifluoromethyl)benzoyl]-2-[(1H-indol-3-yl)methyl]-4-[(2E)-3-(3-pyridyl)-2-propenyl]piperazine dihydrochloride] | > 80 | 195 to 203
Cc1ccc(C[C@@H]2CN(CC#CCN3CCOC[C@@H]3CF)CCN2C(=O)c2cc(C(F)(F)F)cc(C(F)(F)F)c2)cc1C [70-(1), (2R)-1-[3,5-Bis(trifluoromethyl)benzoyl]-2-(3,4-dimethylbenzyl)-4-[4-((3R)-3-fluoromethylmorpholino)-2-butynyl]piperazine dihydrochloride] | > 80 | –
Cc1ccc(C[C@@H]2CN(CC#CCN3CCOCC(F)C3)CCN2C(=O)c2cc(C(F)(F)F)cc(C(F)(F)F)c2)cc1C (stereo partly drawn) [70-(2), (2R)-1-[3,5-Bis(trifluoromethyl)benzoyl]-2-(3,4-dimethylbenzyl)-4-[4-(tetrahydro-6-fluoro-1,4-oxazepin-4(5H)-yl)-2-butynyl]piperazine dihydrochloride] | > 80 | –
COCC1(C)COCCN1CC#CCN1CCN(C(=O)c2cc(C(F)(F)F)cc(C(F)(F)F)c2)[C@H](Cc2ccc(C)c(C)c2)C1.Cl.Cl (stereo partly drawn) [71-(1), (2R)-1-[3,5-Bis(trifluoromethyl)benzoyl]-2-(3,4-dimethylbenzyl)-4-[4-(3-methoxymethyl-3-methylmorpholino)-2-butynyl]piperazine dihydrochloride] | > 80 | 155 to 160
Cc1ccc(C[C@@H]2CN(CC#CCN3[C@@H](C)COC[C@@H]3C)CCN2C(=O)c2cc(C(F)(F)F)cc(C(F)(F)F)c2)cc1C.Cl.Cl [71-(3), (2R)-1-[3,5-Bis(trifluoromethyl)benzoyl]-2-(3,4-dimethylbenzyl)-4-[4-((3S,5S)-3,5-dimethylmorpholino)-2-butynyl]piperazine dihydrochloride] | > 80 | 160 to 165
COC[C@@H]1CN(CC#CCN2CCN(C(=O)c3cc(C(F)(F)F)cc(C(F)(F)F)c3)[C@H](Cc3ccc(C)c(C)c3)C2)CCO1.Cl.Cl [71-(5), (2R)-1-[3,5-Bis(trifluoromethyl)benzoyl]-2-(3,4-dimethylbenzyl)-4-[4-((2S)-2-methoxymethylmorpholino)-2-butynyl]piperazine dihydrochloride] | > 80 | 85 to 95
COC[C@H]1CN(CC#CCN2CCN(C(=O)c3cc(C(F)(F)F)cc(C(F)(F)F)c3)[C@H](Cc3ccc(C)c(C)c3)C2)CCO1.Cl.Cl [71-(6), (2R)-1-[3,5-Bis(trifluoromethyl)benzoyl]-2-(3,4-dimethylbenzyl)-4-[4-((2R)-2-methoxymethylmorpholino)-2-butynyl]piperazine dihydrochloride] | > 80 | 80 to 90
CC[C@H]1COCCN1CC#CCN1CCN(C(=O)c2cc(C(F)(F)F)cc(C(F)(F)F)c2)[C@H](Cc2c[nH]c3ccccc23)C1 [73-(2), (2R)-1-[3,5-Bis(trifluoromethyl)benzoyl]-4-[4-((3S)-3-ethylmorpholino)-2-butynyl]-2-[(1H-indol-3-yl)methyl]piperazine dihydrochloride] | > 80 | –
CC[C@@H]1COCCN1CCN1CCN(C(=O)c2cc(C(F)(F)F)cc(C(F)(F)F)c2)[C@H](Cc2ccc(C)c(C)c2)C1 [80-(1), (2R)-1-[3,5-Bis(trifluoromethyl)benzoyl]-2-(3,4-dimethylbenzyl)-4-[2-((3R)-3-ethylmorpholino)ethyl]piperazine dihydrochloride] | > 80 | –
CC[C@@H]1COCCN1CCN1CCN(C(=O)c2cc(C(F)(F)F)cc(C(F)(F)F)c2)[C@H](Cc2c[nH]c3ccccc23)C1 [81-(10), (2R)-1-[3,5-Bis(trifluoromethyl)benzoyl]-4-[2-((3R)-3-ethylmorpholino)ethyl]-2-[(1H-indol-3-yl)methyl]piperazine dihydrochloride] | > 80 | –
COc1ccc(CC2CN(CC#CCN3CCOCC3(C)C)CCN2C(=O)c2cc(C(F)(F)F)cc(C(F)(F)F)c2)cc1C (stereo not shown) [85-(3), 1-[3,5-Bis(trifluoromethyl)benzoyl]-4-[4-(3,3-dimethylmorpholino)-2-butynyl]-2-(4-methoxy-3-methylbenzyl)piperazine dihydrochloride] | > 80 | –
Cc1ccc(C[C@@H]2CN(CC#CCN3CCOCC3(C)C)CCN2C(=O)c2cc(N(C)C)cc(C(F)(F)F)c2)cc1C [90-(5), (2R)-1-[3-(Dimethylamino)-5-(trifluoromethyl)benzoyl]-2-(3,4-dimethylbenzyl)-4-[4-(3,3-dimethylmorpholino)-2-butynyl]piperazine dihydrochloride] | > 80 | –
O=C(c1cc(C(F)(F)F)cc(C(F)(F)F)c1)N1CCN(CC#Cc2cccnc2)C[C@H]1Cc1c[nH]c2ccccc12 [Example 1-(1), (2R)-1-[3,5-bis(trifluoromethyl)benzoyl]-2-[(1H-indol-3-yl)methyl]-4-[3-(3-pyridyl)-2-propynyl]piperazine] | > 80 | –
Cc1ccc(C[C@@H]2CN(CCOCCN3CCOCC3)CCN2C(=O)c2cc(C(F)(F)F)cc(C(F)(F)F)c2)cc1C [Example 22, (2R)-1-[3,5-Bis(trifluoromethyl)benzoyl]-2-(3,4-dimethylbenzyl)-4-[2-(2-morpholinoethoxy)ethyl]piperazine dihydrochloride] | > 80 | –
O=C(c1cc(C(F)(F)F)cc(C(F)(F)F)c1)N1CCN(CC#CCNCc2cccnc2)C[C@H]1Cc1ccc2ccccc2c1 [Example 30, (2R)-1-[3,5-bis(trifluoromethyl)benzoyl]-4-[4-(3-pyridylmethylamino)-2-butynyl]-2-(2-naphthylmethyl)piperazine trihydrochloride] | > 80 | –
CC[C@H]1COCCN1CC#CCN1CCN(C(=O)c2cc(C(F)(F)F)cc(C(F)(F)F)c2)[C@H](Cc2ccc(C)c(C)c2)C1 [Example 38, (2R)-1-[3,5-bis(trifluoromethyl)benzoyl]-4-[4-((3S)-3-ethylmorpholino)-2-butynyl]-2-(3,4-dimethylbenzyl)piperazine dihydrochloride] | > 80 | –
Cc1ccc(C[C@@H]2CN(Cc3cnn(CC(=O)O)c3)CCN2C(=O)c2cc(C(F)(F)F)cc(C(F)(F)F)c2)cc1C [Example 47, (2R)-1-[3,5-bis(trifluoromethyl)benzoyl]-4-[[1-(carboxymethyl)-1H-pyrazol-4-yl]methyl]-2-(3,4-dimethylbenzyl)piperazine] | – | 223 to 230
COC[C@H]1COCCN1CCCCN1CCN(C(=O)c2cc(C(F)(F)F)cc(C(F)(F)F)c2)[C@H](Cc2ccc(C)c(C)c2)C1 [Example 82, (2R)-1-[3,5-bis(trifluoromethyl)benzoyl]-2-(3,4-dimethylbenzyl)-4-[4-((3S)-3-methoxymethylmorpholino)butyl]piperazine dihydrochloride] | > 80 | –
CC1(C)COCCN1CC#CCN1CCN(C(=O)c2cc(C(F)(F)F)cc(C(F)(F)F)c2)C(Cc2ccc3c(c2)OCO3)C1 (stereo not shown) [Example 84, 1-[3,5-bis-(trifluoromethyl)benzoyl]-4-[4-(3,3-dimethylmorpholino)-2-butynyl]-2-(3,4-methylenedioxybenzyl)piperazine dihydrochloride] | > 80 | –
